In patent US20100286058A1, “Assessing Chemotherapy Resistance of Colorectal Tumors by Determining Sparc Hypermethylation” (priority 2007, published 2010):
“And” between values parts separate entries of the source, which are not always exact repeats. Equal entries are not always repeated. “Also recorded” adds a separate entry of the source.

What was measured:
SPARC [1] = test: Western blot of SPARC protein; format: cell-based, Human; details: MIP101 cells (printed MW101) exposed to 5-Aza
[2] = target: T1, interaction between Dnmtl and the SPARC promoter (Homo sapiens, UniProt P26358); test: Chromatin immunoprecipitation (ChIP) assay; format: cell-based; details: all CRC cell lines, following exposure to 5-Aza
T1 construct: endogenous in cells
Method: To evaluate the effect of 5-Aza exposure on the interaction between Dnmtl (a DNA methyltranferase) with the promoter region of SPARC, a ChIP assay was performed using a ChIP kit (Epigentek) as per the manufacturer's instructions. Cells were fixed with formaldehyde for protein/DNA crosslinking and lysed. The DNA was sheared by sonication (10 pulses, […]) and added to a well coated with the antibody to the protein of interest (anti-Dnmtl, cat. #A-1001, Epigentek). Washes were performed to remove unbound material, while Dnmtl-bound DNA was released by protein digestion with proteinase K. The DNA was purified through a column and PCR was performed using primers designed to target the SPARC promoter region.

INK4A(p16) promoter = test: Methylation specific PCR of CRC cell lines (control promoter); format: cell-based, Human; details: 4 μM 5-Aza, 7 days in vitro; all four CRC cell lines
RKO cells = test: Cell proliferation (cell counts); format: cell-based, Human
Method: (§1) Human colorectal cancer (CRC) cell lines, MIP 101, RKO, HCT116 and HT29 (ATCC), and a normal colon cell line CCD 112CON (ATCC), were maintained in DMEM supplemented with 10% fetal bovine serum; 1% Kanamycin, Streptomycin, Penicillin; and incubated at 37° C. and 5% CO2. To determine the effect of reversing the methylation status of SPARC, a demethylating agent (5-Aza-2′deoxycytidine, “5-Aza”) was added to the culture media at a final concentration of 4 μm for a period of 7 days with medium changes on day 4, before assessing its effect on cell viability (WST-1), apoptosis (Caspase 3/7 and TUNEL) and cell proliferation.
(§2) To determine the rate of cell proliferation, cells exposed to 5-Aza for 7 days (and untreated controls) were seeded at 20,000 cells/well into a 48-well plate. Cells were counted from duplicate wells at 24, 48 and 72 h. The effect of 5-FU exposure for 24 hour-period on cell proliferation in the presence or absence of 5-Aza was also determined. We performed two independent experiments.

HT29 cells = test: Cell proliferation (cell counts); format: cell-based, Human; details: incubated with 5-Aza, most noticeable after 2-days
Method: as §1, §2

HCT 116 cells = test: Cell proliferation (cell counts); format: cell-based, Human; details: incubated with 5-Aza, most noticeable after 2-days
Method: as §1, §2

MIP101 cells = test: Cell proliferation (cell counts); format: cell-based, Human
Method: as §1, §2

SPARC [3] = test: RT-PCR of SPARC mRNA; format: cell-based, Human; details: MIP101 cells exposed to 5-Aza
From the text: This technique is based on bisulfite treatment of the DNA, which modifies cytosines to uracil except when they are methylated (5-methylcytosine), followed by PCR. After bisulfite modification the DNA was amplified using methylation specific primers. Two primer sets, previously described, were used to target the CpG island located in the putative promoter region of the SPARC gene, and are referred as MSP1 and MSP2. Primers targeting INK4A(p16) were used as control. […] For RT-PCR, mRNA isolated from CRC cell lines were extracted using Trizol (Invitrogen). Primers to amplify SPARC, sense 5′-GGGAGGGCCTTGGCAG-3′ antisense 5′-GCACATGGGGGTGTTG-3′ and actin, sense 5′-GCCACGGCTGCTTCCAG-3′antisense 5′-GGCGTACAGGTCTTTGC-3′ were annealed at 49° C. in 45 cycles after reverse transcription for 1 hour at 50° C. Amplicons were separated in 2.5% agarose gel electrophoresis.

SPARC promoter = test: Methylation specific PCR of CRC cell lines; format: cell-based, Human; details: 4 μM 5-Aza, 7 days in vitro; all four CRC cell lines (MIP101, RKO, HCT116, HT29)
Method: as §1
This technique is based on bisulfite treatment of the DNA, which modifies cytosines to uracil except when they are methylated (5-methylcytosine), followed by PCR. After bisulfite modification the DNA was amplified using methylation specific primers. Two primer sets, previously described, were used to target the CpG island located in the putative promoter region of the SPARC gene, and are referred as MSP1 and MSP2. Primers targeting INK4A(p16) were used as control. […] For RT-PCR, mRNA isolated from CRC cell lines were extracted using Trizol (Invitrogen). […]

MIP 101 cells = test: Cell viability (WST-1); format: cell-based; details: 24 h, read-out: viable cells
Method: as §1
Cell viability was evaluated using WST-1 (Roche) following the manufacturer's instructions. Cells exposed to 5-Aza for a period of 7 days (and untreated controls) were seeded at 10,000 cells per well in triplicate into a 96-well plate. Twelve hours later, 5-Fluorouracil (5-FU) was added to a final concentration of 0, 500 or 1,000 μM for an additional 24 h. WST reagent was added to each well and incubated at 37° C. after which plates were read at 60 min at 440 nm. Three independent experiments were analyzed. The significance of differences were determined using Student's t-test (P<0.05).

T1 sequence (P26358 whole entry): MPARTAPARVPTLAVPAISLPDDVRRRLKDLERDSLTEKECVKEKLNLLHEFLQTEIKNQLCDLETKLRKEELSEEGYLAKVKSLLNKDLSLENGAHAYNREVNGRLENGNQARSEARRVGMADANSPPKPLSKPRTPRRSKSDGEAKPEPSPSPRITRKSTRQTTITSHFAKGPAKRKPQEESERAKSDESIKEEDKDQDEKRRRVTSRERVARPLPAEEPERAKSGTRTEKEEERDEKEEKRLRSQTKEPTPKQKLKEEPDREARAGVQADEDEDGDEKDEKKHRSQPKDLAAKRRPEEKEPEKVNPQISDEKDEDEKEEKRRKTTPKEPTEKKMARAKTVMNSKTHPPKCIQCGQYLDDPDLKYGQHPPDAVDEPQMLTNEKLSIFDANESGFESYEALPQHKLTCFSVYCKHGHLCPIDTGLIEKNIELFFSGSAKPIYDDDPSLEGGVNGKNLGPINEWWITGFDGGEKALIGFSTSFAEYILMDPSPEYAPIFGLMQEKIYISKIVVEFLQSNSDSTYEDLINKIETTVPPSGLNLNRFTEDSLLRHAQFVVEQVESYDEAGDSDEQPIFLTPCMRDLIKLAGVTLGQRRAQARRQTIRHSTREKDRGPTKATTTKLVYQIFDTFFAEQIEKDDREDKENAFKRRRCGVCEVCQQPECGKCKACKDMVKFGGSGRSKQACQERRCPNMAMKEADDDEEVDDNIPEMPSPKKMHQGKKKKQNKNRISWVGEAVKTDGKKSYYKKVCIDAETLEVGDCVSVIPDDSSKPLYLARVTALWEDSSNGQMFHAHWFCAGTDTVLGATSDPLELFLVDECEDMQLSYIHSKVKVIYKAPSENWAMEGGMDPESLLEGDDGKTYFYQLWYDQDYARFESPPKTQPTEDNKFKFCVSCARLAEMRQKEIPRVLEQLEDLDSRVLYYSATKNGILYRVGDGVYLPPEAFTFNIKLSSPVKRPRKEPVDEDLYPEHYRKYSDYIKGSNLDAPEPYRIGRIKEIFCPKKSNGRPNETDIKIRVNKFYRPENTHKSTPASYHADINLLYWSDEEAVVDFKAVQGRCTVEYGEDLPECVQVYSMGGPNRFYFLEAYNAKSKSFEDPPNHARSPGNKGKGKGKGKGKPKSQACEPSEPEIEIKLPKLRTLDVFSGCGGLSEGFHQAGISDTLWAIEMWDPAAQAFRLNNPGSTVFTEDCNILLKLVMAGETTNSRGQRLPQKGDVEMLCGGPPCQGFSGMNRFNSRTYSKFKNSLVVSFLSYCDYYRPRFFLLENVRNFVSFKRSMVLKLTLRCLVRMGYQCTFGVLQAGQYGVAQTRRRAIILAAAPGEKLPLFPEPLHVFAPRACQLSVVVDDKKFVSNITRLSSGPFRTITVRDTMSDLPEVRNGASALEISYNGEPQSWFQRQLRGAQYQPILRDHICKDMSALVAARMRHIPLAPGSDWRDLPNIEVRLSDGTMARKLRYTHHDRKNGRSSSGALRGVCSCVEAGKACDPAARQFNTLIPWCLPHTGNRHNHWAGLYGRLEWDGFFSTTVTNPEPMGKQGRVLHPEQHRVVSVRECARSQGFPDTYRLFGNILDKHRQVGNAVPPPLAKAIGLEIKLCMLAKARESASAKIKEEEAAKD

Nc1ncn([C@H]2C[C@H](O)[C@@H](CO)O2)c(=O)n1 [5-Aza, 5-Aza-2′deoxycytidine]
SPARC protein expression (Western blot) (SPARC [1]): reactivation of SPARC RNA and protein expression
interaction between the SPARC promoter and Dnmtl (ChIP) [2]: no longer observed
methylation status of the INK4A(p16) promoter (INK4A(p16) promoter): change in the methylation status
increase in cell doubling time (RKO cells; 4 μM 5-Aza vs control): 2.4 fold and 2.43 fold
doubling time (RKO cells; incubation with 4 μM 5-Aza (control 0.7 days)): 1.7 days
cell proliferation (HT29 cells): less dramatic yet significant decrease in cell proliferation
cell proliferation (HCT 116 cells): less dramatic yet significant decrease in cell proliferation
increase in cell doubling time (MIP101 cells; 4 μM 5-Aza vs control): 3 fold
doubling time (MIP101 cells; incubation with 4 μM 5-Aza (control 0.8 days)): 2.4 days
SPARC RNA expression (RT-PCR) (SPARC [3]): higher SPARC expression; also recorded: reactivation of SPARC RNA and protein expression
methylation status in the MSP1 and MSP2 regions of the SPARC promoter (SPARC promoter): change in the methylation status

O=c1[nH]cc(F)c(=O)[nH]1 [5-FU, 5-Fluorouracil]
viability at 500 µM (MIP 101 cells; Homo sapiens, 500 μM 5-FU only): 87.7%
viability at 1000 µM (MIP 101 cells; Homo sapiens, 1,000 μM 5-FU only): 82.7%
